Assay results published in patent US20250009765A1, “COMPOSITIONS AND METHODS FOR REDUCING SLEEP DI[…] TREATING SLEEP DISORDERS” (FloraScience Inc., priority 2023, published 2025).

Columns and labels:
Type in all cases: in vivo, human
[1] = Tolerability: side effects reported by participants
Method: (§1) The primary aim of this study was to assess the effects of three different formulations of TruCBN softgels and a formulation of 4 mg melatonin on sleep quality, relative to placebo control. There were 5 arms within the study; (1) 4 mg melatonin, (2) 25 mg CBN, (3) 50 mg CBN, (4) 100 mg CBN, and (5) placebo (see Table 1 for further details on study arm formulations). All study arms provided the test article as a softgel. Participants were instructed to take 1 softgel 1-2 hours before bed. To ensure that results were not biased, participants were randomly assigned to product, were blinded to the contents, and were not told what they were taking until the conclusion of the study. The secondary aim of the study was to assess the tolerability of the three formulations of TruCBN softgels and 4 mg melatonin, relative to placebo.
(§2) After receiving study product, each participant was instructed to take 1 softgel each day orally 1-2 hours before bed and complete weekly health and product use surveys. This phase of the study lasted about 4 weeks.
The side effects for all study arms were similar in frequency and mostly mild; none were considered serious or required use of emergency or non-emergency healthcare services. The most commonly reported side effect was grogginess or drowsiness (see FIG. 7). Additional side effects reported by some participants included: chest pain, constipation, urinary tract infection, tingling in lips, dry mouth, weight gain, dry or itchy eyes, low libido, rash, and brain fog.

[2] = Average time to effect reported by participants; conditions: oral
Method: as §2
Participants reported experiencing an effect between 46 and 55 minutes after taking their study product.

sleep disturbance [3] = test: PROMIS Sleep Disturbance SF4A survey, randomized blinded placebo-controlled study; conditions: for Relative Risk for meaningful clinical improvement on the PROMIS Sleep SF4A / Estimated marginal percentage achieving meaningful clinical improvement on the PROMIS Sleep SF4A: 95% CI in parentheses; for Observed % Achieving Meaningful Clinical Improvement on the PROMIS Sleep SF4A: 30% or greater reduction from baseline; for Estimated marginal percentage achieving meaningful clinical improvement on the PROMIS Sleep SF4A: improvement = 30% or greater reduction from baseline
Method: as §1
(§3) Study participants were at least 21 years old, endorsed a desire for better sleep quality, and expressed interest in taking a cannabinoid product to improve their sleep. The study was entirely virtual; participants were recruited through online recruitment channels, study product was delivered directly to participants' homes, and all data were collected via online surveys delivered to their mobile device or computer. There were four phases of the study (see FIG. 1 for study timeline): (1) Recruitment and Randomization, (2) Baseline (1 week), (3) Study period (2-5 weeks), and (4) Conclusion.
The PROMIS™ Sleep Disturbance SF4A threshold for minimally important difference: One-half the standard deviation of the baseline score (Norman, G. R. et al., Med. Care, 2003, 41:582-592).
as §2
(§4) For precision, adjustments were made for sex, age, race, ethnicity, and body mass index (BMI) in every model. […] Analysis was conducted using Stata 17 and R. An intent-to-treat analysis was run, meaning that all participants who were assigned product (aside from the aforementioned exclusions) were included in the analysis according to their product assignment, regardless of product adherence or study attrition. Visuals of the predicted marginal means of health scores, rather than the raw mean scores, were prepared. Predicted marginal means were calculated from the statistical models and better represent the true differences between arms adjusting for any potential imbalances across arms. A finding that was “significant” means that the likelihood of falsely rejecting the null hypothesis that there were no differences between groups was very small (less than 5%; i.e., the p-value was less than 0.05). In other words, when certain findings were said to be “significant” they are not considered the result of random variation.

sleep disturbance [4] = test: Participant global impression of change (PGIC) in sleep disturbance; conditions: for Odds Ratio (95% Confidence interval), sleep disturbance PGIC: Dunnett correction; for Parameter estimate for PGIC in sleep disturbance: treatment reference placebo, log-odds scale
Method: as §1
Participants received a final study survey asking about their overall experiences and impressions. Afterwards they also receive a Report containing their individualized data.
as §4

sleep disturbance [5] = test: PROMIS Sleep Disturbance 8A survey, randomized blinded placebo-controlled study; conditions: for Relative Risk for meaningful clinical improvement on the PROMIS Sleep Disturbance 8A / Estimated marginal percentage achieving meaningful clinical improvement on the PROMIS Sleep 8A: 95% CI in parentheses; for Observed % Achieving Meaningful Clinical Improvement on the PROMIS Sleep 8A: 30% or greater reduction from baseline; for % experiencing MCID in PROMIS Sleep Disturbance 8A score: MCID = score reduction of one half the standard deviation of the baseline score; for Estimated marginal percentage achieving meaningful clinical improvement on the PROMIS Sleep 8A: improvement = 30% or greater reduction from baseline; for Parameter Estimate for PROMIS Sleep Disturbances 8a, Treatment: reference placebo, linear mixed-effects model
Method: as §1, §3
PROMIS™ Sleep Disturbance 8A: An 8-question survey, with severity thresholds based on T-scores not raw scores. The severity scores are established as follows: • “None to slight”=Less than 55 • “Mild”=55.0-59.9 • “Moderate”=60.0-69.9 • “Severe”=70 and up
The range of raw scores were from 8 to 40, with higher scores translating to greater sleep disturbance (i.e., worse sleep quality). PROMIS™ Sleep Disturbance 8A threshold for minimally important difference: One-half the standard deviation of the baseline score (Purvis, Taylor E. et al., SPINE, 2018, 43(21):1512-1520).
as §2, §4

## CCCCCc1cc(O)c2c(c1)OC(C)(C)c1ccc(C)cc1-2 [CBN, 6,6,9-trimethyl-3-pentyl-benzo[c]chromen-1-ol]
[1]; 25 mg CBN
  % of participants reporting any side effects: 6.8%
[1]; 50 mg CBN
  % of participants reporting any side effects: 12.9%
[1]; 100 mg CBN
  % of participants reporting any side effects: 7.9%
[2]; 25 mg CBN softgel
  Average time to effect: 54.9 min
[2]; 50 mg CBN softgel
  Average time to effect: 55.5 min
[2]; 100 mg CBN softgel
  Average time to effect: 46.4 min
Sleep disturbance [3]; 25 mg CBN − placebo
  Relative Risk for meaningful clinical improvement on the PROMIS Sleep SF4A: 1.35 (0.66, 2.03)
Sleep disturbance [3]; 25 mg CBN
  Observed % Achieving Meaningful Clinical Improvement on the PROMIS Sleep SF4A: 47.83%
  Estimated marginal percentage achieving meaningful clinical improvement on the PROMIS Sleep SF4A: 46.28% (34.73%, 61.7%)
Sleep disturbance [3]; 25 mg CBN, week 1
  Estimated marginal mean, PROMIS Sleep Disturbance SF4A: 11.0
Sleep disturbance [3]; 25 mg CBN, week 2
  Estimated marginal mean, PROMIS Sleep Disturbance SF4A: 10.81
Sleep disturbance [3]; 25 mg CBN, week 3
  Estimated marginal mean, PROMIS Sleep Disturbance SF4A: 11.1
Sleep disturbance [3]; 25 mg CBN, week 4
  Estimated marginal mean, PROMIS Sleep Disturbance SF4A: 10.9
Sleep disturbance [3]; 50 mg CBN − placebo
  Relative Risk for meaningful clinical improvement on the PROMIS Sleep SF4A: 1.59 (0.81, 2.37)
Sleep disturbance [3]; 50 mg CBN
  Observed % Achieving Meaningful Clinical Improvement on the PROMIS Sleep SF4A: 58.33%
  Estimated marginal percentage achieving meaningful clinical improvement on the PROMIS Sleep SF4A: 54.76% (41.80%, 71.7%)
Sleep disturbance [3]; 50 mg CBN, week 1
  Estimated marginal mean, PROMIS Sleep Disturbance SF4A: 10.7
Sleep disturbance [3]; 50 mg CBN, week 2
  Estimated marginal mean, PROMIS Sleep Disturbance SF4A: 10.9
Sleep disturbance [3]; 50 mg CBN, week 3
  Estimated marginal mean, PROMIS Sleep Disturbance SF4A: 10.8
Sleep disturbance [3]; 50 mg CBN, week 4
  Estimated marginal mean, PROMIS Sleep Disturbance SF4A: 10.3
Sleep disturbance [3]; 100 mg CBN − placebo
  Relative Risk for meaningful clinical improvement on the PROMIS Sleep SF4A: 1.47 (0.75, 2.19)
Sleep disturbance [3]; 100 mg CBN
  Observed % Achieving Meaningful Clinical Improvement on the PROMIS Sleep SF4A: 53.19%
  Estimated marginal percentage achieving meaningful clinical improvement on the PROMIS Sleep SF4A: 50.56% (38.37%, 66.6%)
Sleep disturbance [3]; 100 mg CBN, week 1
  Estimated marginal mean, PROMIS Sleep Disturbance SF4A: 10.8
Sleep disturbance [3]; 100 mg CBN, week 2
  Estimated marginal mean, PROMIS Sleep Disturbance SF4A: 11.33
Sleep disturbance [3]; 100 mg CBN, week 3
  Estimated marginal mean, PROMIS Sleep Disturbance SF4A: 10.8
Sleep disturbance [3]; 100 mg CBN, week 4
  Estimated marginal mean, PROMIS Sleep Disturbance SF4A: 10.8
Sleep disturbance [4]; 25 mg CBN
  Marginal mean (95% confidence interval), sleep disturbance PGIC: 3.81
  Parameter estimate for PGIC in sleep disturbance: 0.63
Sleep disturbance [4]; 25 mg CBN − placebo
  Odds Ratio (95% Confidence interval), sleep disturbance PGIC: 1.88 (0.98, 3.62)
Sleep disturbance [4]; 50 mg CBN
  Marginal mean (95% confidence interval), sleep disturbance PGIC: 3.91
  Parameter estimate for PGIC in sleep disturbance: 0.85
Sleep disturbance [4]; 50 mg CBN − placebo
  Odds Ratio (95% Confidence interval), sleep disturbance PGIC: 2.35 (1.22, 4.51)
Sleep disturbance [4]; 100 mg CBN
  Marginal mean (95% confidence interval), sleep disturbance PGIC: 3.91
  Parameter estimate for PGIC in sleep disturbance: 0.85
Sleep disturbance [4]; 100 mg CBN − placebo
  Odds Ratio (95% Confidence interval), sleep disturbance PGIC: 2.35 (1.24, 4.44)
Sleep disturbance [5]; 25 mg CBN − placebo
  Relative Risk for meaningful clinical improvement on the PROMIS Sleep Disturbance 8A: 1.33 (0.65, 2.01)
Sleep disturbance [5]; 25 mg CBN
  Observed % Achieving Meaningful Clinical Improvement on the PROMIS Sleep 8A: 46.7%
  % experiencing MCID in PROMIS Sleep Disturbance 8A score: 46.7%
  Estimated marginal percentage achieving meaningful clinical improvement on the PROMIS Sleep 8A: 47.1% (35.41%, 62.66%)
  Parameter Estimate for PROMIS Sleep Disturbances 8a, Treatment: 0.14
Sleep disturbance [5]; 25 mg CBN, week 1
  Estimated marginal mean, PROMIS Sleep Disturbance 8A: 21.6
Sleep disturbance [5]; 25 mg CBN, week 2
  Estimated marginal mean, PROMIS Sleep Disturbance 8A: 20.6
Sleep disturbance [5]; 25 mg CBN, week 3
  Estimated marginal mean, PROMIS Sleep Disturbance 8A: 21.3
Sleep disturbance [5]; 25 mg CBN, week 4
  Estimated marginal mean, PROMIS Sleep Disturbance 8A: 20.9
Sleep disturbance [5]; 50 mg CBN − placebo
  Relative Risk for meaningful clinical improvement on the PROMIS Sleep Disturbance 8A: 1.46 (0.72, 2.2)
Sleep disturbance [5]; 50 mg CBN
  Observed % Achieving Meaningful Clinical Improvement on the PROMIS Sleep 8A: 53.6%
  % experiencing MCID in PROMIS Sleep Disturbance 8A score: 53.6%
  Estimated marginal percentage achieving meaningful clinical improvement on the PROMIS Sleep 8A: 51.6% (38.93%, 68.48%)
  Parameter Estimate for PROMIS Sleep Disturbances 8a, Treatment: 0.28
Sleep disturbance [5]; 50 mg CBN, week 1
  Estimated marginal mean, PROMIS Sleep Disturbance 8A: 20.4
Sleep disturbance [5]; 50 mg CBN, week 2
  Estimated marginal mean, PROMIS Sleep Disturbance 8A: 21
Sleep disturbance [5]; 50 mg CBN, week 3
  Estimated marginal mean, PROMIS Sleep Disturbance 8A: 20.7
Sleep disturbance [5]; 50 mg CBN, week 4
  Estimated marginal mean, PROMIS Sleep Disturbance 8A: 20.3
Sleep disturbance [5]; 100 mg CBN − placebo
  Relative Risk for meaningful clinical improvement on the PROMIS Sleep Disturbance 8A: 1.39 (0.7, 2.08)
Sleep disturbance [5]; 100 mg CBN
  Observed % Achieving Meaningful Clinical Improvement on the PROMIS Sleep 8A: 50.0%
  % experiencing MCID in PROMIS Sleep Disturbance 8A score: 50.0%
  Estimated marginal percentage achieving meaningful clinical improvement on the PROMIS Sleep 8A: 49.1% (36.96%, 65.24%)
  Parameter Estimate for PROMIS Sleep Disturbances 8a, Treatment: 0.59
Sleep disturbance [5]; 100 mg CBN, week 1
  Estimated marginal mean, PROMIS Sleep Disturbance 8A: 20.99
Sleep disturbance [5]; 100 mg CBN, week 2
  Estimated marginal mean, PROMIS Sleep Disturbance 8A: 21.77
Sleep disturbance [5]; 100 mg CBN, week 3
  Estimated marginal mean, PROMIS Sleep Disturbance 8A: 20.84
Sleep disturbance [5]; 100 mg CBN, week 4
  Estimated marginal mean, PROMIS Sleep Disturbance 8A: 20.9
